From ChEMBL document CHEMBL4425148, “Cytotoxic prenylated flavones from the stem and root bark of Daphne giraldii” (Bioorg Med Chem Lett, 2016)

Assays:
U-251 = assay: Cytotoxicity against human U251 cells assessed as reduction in cell growth incubated for 48 hrs by MTT assay; format: functional, cell-based; conditions: U-251, 48 h
A549 = assay: Cytotoxicity against human A549 cells assessed as reduction in cell growth incubated for 48 hrs by MTT assay; format: functional, cell-based; conditions: A549, 48 h
Bcap37 = assay: Cytotoxicity against human Bcap37 cells assessed as reduction in cell growth incubated for 48 hrs by MTT assay; format: functional, cell-based; conditions: Bcap37, 48 h
HepG2 [1] = assay: cells; conditions: Homo sapiens, HepG2, 48 h
MCF7 = assay: cells; conditions: Homo sapiens, MCF7, 48 h
HepG2 [2] = assay: Induction of apoptosis in human HepG2 cells assessed as early apoptotic cells at 2 uM after 48 hrs by Annexin V-FITC/propidium iodide based flow cytometric analysis (reference value: 3.33 %); format: functional
HepG2 [3] = assay: Induction of apoptosis in human HepG2 cells assessed as late apoptotic cells at 2 uM after 48 hrs by Annexin V-FITC/propidium iodide based flow cytometric analysis (reference value: 3.81 %); format: functional
HepG2 [4] = assay: Induction of apoptosis in human HepG2 cells after 48 hrs by Annexin V-FITC/propidium iodide based flow cytometric analysis; format: functional, cell-based

COc1ccc(-c2cc(=O)c3c(O)c(OC)c(O)cc3o2)cc1OC [EUPATILIN]
IC50 (U-251): > 100 µM
IC50 (A549): > 100 µM
IC50 (Bcap37): > 100 µM
IC50 (HepG2 [1]): 52.6 µM
IC50 (MCF7): 90.1 µM

O=c1[nH]cc(F)c(=O)[nH]1 [FLUOROURACIL]
IC50 (U-251): 38.7 µM
IC50 (A549): 24.7 µM
IC50 (Bcap37): 37.1 µM
IC50 (HepG2 [1]): 39.7 µM

COc1c(-c2ccc(O)c(O)c2)oc2c(CC=C(C)C)c(O)c(CC=C(C)C)c(O)c2c1=O
IC50 (U-251): 17.3 µM
IC50 (A549): 25 µM
IC50 (Bcap37): 45.4 µM
IC50 (HepG2 [1]): 14.1 µM
IC50 (MCF7): 18.8 µM

CC(C)=CCc1c(-c2ccc(O)cc2O)oc2c3c(cc(O)c2c1=O)OC(C)(C)C=C3 [MORUSIN]
IC50 (U-251): 17.9 µM
IC50 (A549): 24.1 µM
IC50 (Bcap37): 33.1 µM
IC50 (HepG2 [1]): 9.3 µM
IC50 (MCF7): 11.5 µM

COc1c(-c2cc(O)c3c(c2)C=CC(C)(C)O3)oc2c3c(cc(O)c2c1=O)OC(C)(C)[C@@H](O)C3
IC50 (U-251): 12 µM
IC50 (A549): 5.39 µM
IC50 (Bcap37): 20.8 µM
Activity (HepG2 [2]): 13.77%
Activity (HepG2 [3]): 14.32%
Activity (HepG2 [4]): Dose-dependent effect
IC50 (HepG2 [1]): 4.26 µM
IC50 (MCF7): 6.98 µM

CC(C)=CCc1cc([C@@H]2CC(=O)c3ccc(O)cc3O2)c2c(c1O)OC(C)(C)CC2
IC50 (U-251): > 100 µM
IC50 (A549): 18.4 µM
IC50 (Bcap37): > 100 µM
IC50 (HepG2 [1]): > 100 µM
IC50 (MCF7): > 100 µM

COc1c(-c2cc(O)c3c(c2)C=CC(C)(C)O3)oc2c(CC=C(C)C)c(O)cc(O)c2c1=O
IC50 (U-251): > 100 µM
IC50 (A549): 66.8 µM
IC50 (Bcap37): > 100 µM
IC50 (HepG2 [1]): 36.7 µM
IC50 (MCF7): 76.9 µM
